Test results as given in ChEMBL document CHEMBL1141167, “Antitumor activity of new substituted 3-(5-imidazo[2,1-b]thiazolylmethylene)-2-indolinones and study of their effect on the cell cycle” (2005).
Several values for one entry are separate records, joined by “and”; a condition that tells them apart may be missing. Equal entries are not always repeated.

How the values were obtained:
CNS cell [1] = test: Growth inhibitory concentration dissolved in DMSO against human CNS cell line at 10E-4 M concentration; assay type: functional
Colon cell [2] = test: Total growth inhibition of human Colon cell line at 10E-4 M concentration; assay type: functional; parameters: unit not given here
NSCLC [3] = test: Total growth inhibition of human NSCLC cell line at 10E-4 M concentration; assay type: functional
Breast carcinoma cell [4] = test: Total growth inhibition of human Breast cell line at 10E-4 M concentration; assay type: functional
[5] = system: Panel NCI-60 (60 carcinoma cell lines); test: Total growth inhibition of human MG-MID cell line at 10E-4 M concentration; assay type: functional
Ovarian carcinoma cell [6] = test: Total growth inhibition of human Ovarian cell line at 10E-4 M concentration; assay type: functional
Melanoma cell [7] = test: Total growth inhibition of human Melanoma cell line at 10E-4 M concentration; assay type: functional
Prostate cell [8] = test: Total growth inhibition of human Prostate cell line at 10E-4 M concentration; assay type: functional
Prostate cell [9] = test: Growth inhibitory concentration dissolved in DMSO against human Prostate cell line at 10E-4 M concentration; assay type: functional
Ovarian carcinoma cell [10] = test: Growth inhibitory concentration dissolved in DMSO against human Ovarian cell line at 10E-4 M concentration; assay type: functional
Melanoma cell [11] = test: Growth inhibitory concentration dissolved in DMSO against human Melanoma cell line at 10E-4 M concentration; assay type: functional
Colon cell [12] = test: Growth inhibitory concentration dissolved in DMSO against human Colon cell line at 10E-4 M concentration; assay type: functional
NSCLC [13] = test: Growth inhibitory concentration dissolved in DMSO against human NSCLC cell line at 10E-4 M concentration; assay type: functional; parameters: unit not given here
Renal cell [14] = test: Growth inhibitory concentration dissolved in DMSO against human Renal cell line at 10E-4 M concentration; assay type: functional; parameters: unit not given here
Breast carcinoma cell [15] = test: Growth inhibitory concentration dissolved in DMSO against human Breast cell line at 10E-4 M concentration; assay type: functional
[16] = system: Panel NCI-60 (60 carcinoma cell lines); test: Growth inhibitory concentration dissolved in DMSO against human MG-MID cell line at 10E-4 M concentration; assay type: functional
CNS cell [17] = test: Cytotoxic effect dissolved in DMSO against CNS cell line at 10E-4 M concentration; assay type: functional, Homo sapiens
Colon cell [18] = test: Cytotoxic effect dissolved in DMSO against Colon cell line at 10E-4 M concentration; assay type: functional, Homo sapiens
NSCLC [19] = test: Cytotoxic effect dissolved in DMSO against NSCLC cell line at 10E-4 M concentration; assay type: functional, Homo sapiens
HT-29 [20] = test: Percentage of Cells after administration of compound dissolved in DMSO (10e-4 M) towards colon adenocarcinoma cell line HT-29 in G2/M Phase after 24 Hours of Treatment [control = 10]; assay type: functional, Homo sapiens
HT-29 [21] = test: Percentage of Cells after administration of compound dissolved in DMSO (10e-5 M) towards colon adenocarcinoma cell line HT-29 in G2/M Phase after 24 Hours of Treatment [control = 10]; assay type: functional, Homo sapiens
HT-29 [22] = test: Percentage of Cells after administration of compound dissolved in DMSO (10e-6 M) towards colon adenocarcinoma cell line HT-29 in G2/M Phase after 24 Hours of Treatment [control = 10]; assay type: functional, Homo sapiens
Renal cell [23] = test: Cytotoxic effect dissolved in DMSO against Renal cell line at 10E-4 M concentration; assay type: functional, Homo sapiens
Breast carcinoma cell [24] = test: Cytotoxic effect dissolved in DMSO against Breast cell line at 10E-4 M concentration; assay type: functional, Homo sapiens
[25] = system: Panel NCI-60 (60 carcinoma cell lines); test: Cytotoxic effect dissolved in DMSO against MG-MID cell line at 10E-4 M concentration; assay type: functional, Homo sapiens
Ovarian carcinoma cell [26] = test: Cytotoxic effect dissolved in DMSO against Ovarian cell line at 10E-4 M concentration; assay type: functional, Homo sapiens
Melanoma cell [27] = test: Cytotoxic effect dissolved in DMSO against Melanoma cell line at 10E-4 M concentration; assay type: functional, Homo sapiens
HT-29 [28] = test: Percentage of Cells after administration of compound dissolved in DMSO (10e-7M) towards colon adenocarcinoma cell line HT-29 in G2/M Phase after 24 Hours of Treatment [control = 10]; assay type: functional, Homo sapiens
HT-29 [29] = test: Percentage of Cells after administration of compound dissolved in DMSO (10e-8 M) towards colon adenocarcinoma cell line HT-29 in G2/M Phase after 24 Hours of Treatment [control = 10]; assay type: functional, Homo sapiens
Prostate cell [30] = test: Cytotoxic effect dissolved in DMSO against Prostate cell line at 10E-4 M concentration; assay type: functional, Homo sapiens
CNS cell [31] = test: Growth inhibitory concentration dissolved in DMSO against human CNS cell line at 10E-3 M concentration; assay type: functional
Colon cell [32] = test: Growth inhibitory concentration dissolved in DMSO against human Colon cell line at 10E-3 M concentration; assay type: functional
CNS cell [33] = test: Total growth inhibition of human CNS cell line at 10E-3 M concentration; assay type: functional
Colon cell [34] = test: Total growth inhibition of human Colon cell line at 10E-3 M concentration; assay type: functional
NSCLC [35] = test: Total growth inhibition of human NSCLC cell line at 10E-3 M concentration; assay type: functional
Renal cell [36] = test: Total growth inhibition of human Renal cell line at 10E-3 M concentration; assay type: functional
[37] = system: Panel NCI-60 (60 carcinoma cell lines); test: Total growth inhibition of human MG-MID cell line at 10E-3 M concentration; assay type: functional
Breast carcinoma cell [38] = test: Total growth inhibition of human Breast cell line at 10E-3 M concentration; assay type: functional
Leukemia cell [39] = test: Total growth inhibition of human Leukemia cell line at 10E-3 M concentration; assay type: functional
Melanoma cell [40] = test: Total growth inhibition of human Melanoma cell line at 10E-3 M concentration; assay type: functional
Ovarian carcinoma cell [41] = test: Total growth inhibition of human Ovarian cell line at 10E-3 M concentration; assay type: functional
Prostate cell [42] = test: Total growth inhibition of human Prostate cell line at 10E-3 M concentration; assay type: functional
Leukemia cell [43] = test: Growth inhibitory concentration dissolved in DMSO against human leukemia cell line at 10E-3 M concentration; assay type: functional
Melanoma cell [44] = test: Growth inhibitory concentration dissolved in DMSO against human Melanoma cell line at 10E-3 M concentration; assay type: functional
Prostate cell [45] = test: Growth inhibitory concentration dissolved in DMSO against human Prostate cell line at 10E-3 M concentration; assay type: functional
NSCLC [46] = test: Growth inhibitory concentration dissolved in DMSO against human NSCLC cell line at 10E-3 M concentration; assay type: functional
Renal cell [47] = test: Growth inhibitory concentration dissolved in DMSO against human Renal cell line at 10E-3 M concentration; assay type: functional
Breast carcinoma cell [48] = test: Growth inhibitory concentration dissolved in DMSO against human Breast cell line at 10E-3 M concentration; assay type: functional
[49] = system: Panel NCI-60 (60 carcinoma cell lines); test: Growth inhibitory concentration dissolved in DMSO against human MG-MID cell line at 10E-3 M concentration; assay type: functional
Ovarian carcinoma cell [50] = test: Growth inhibitory concentration dissolved in DMSO against human Ovarian cell line at 10E-3 M concentration; assay type: functional
CNS cell [51] = test: Cytotoxic effect dissolved in DMSO against CNS cell line at 10E-3 M concentration; assay type: functional, Homo sapiens
Colon cell [52] = test: Cytotoxic effect dissolved in DMSO against Colon cell line at 10E-3 M concentration; assay type: functional, Homo sapiens
NSCLC [53] = test: Cytotoxic effect dissolved in DMSO against NSCLC cell line at 10E-3 M concentration; assay type: functional, Homo sapiens
Breast carcinoma cell [54] = test: Cytotoxic effect dissolved in DMSO against Breast cell line at 10E-3 M concentration; assay type: functional, Homo sapiens
[55] = system: Panel NCI-60 (60 carcinoma cell lines); test: Cytotoxic effect dissolved in DMSO against MG-MID cell line at 10E-3 M concentration; assay type: functional, Homo sapiens
Ovarian carcinoma cell [56] = test: Cytotoxic effect dissolved in DMSO against Ovarian cell line at 10E-3 M concentration; assay type: functional, Homo sapiens
Leukemia cell [57] = test: Cytotoxic effect dissolved in DMSO against Leukemia cell line at 10E-3 M concentration; assay type: functional, Homo sapiens
Melanoma cell [58] = test: Cytotoxic effect dissolved in DMSO against Melanoma cell line at 10E-3 M concentration; assay type: functional, Homo sapiens
Prostate cell [59] = test: Cytotoxic effect dissolved in DMSO against Prostate cell line at 10E-3 M concentration; assay type: functional, Homo sapiens
Renal cell [60] = test: Cytotoxic effect dissolved in DMSO against Renal cell line at 10E-3 M concentration; assay type: functional, Homo sapiens

Cc1cn2c(/C=C3/C(=O)Nc4ccc(Cl)cc43)c(C)nc2s1
pGI50 (-log GI50, M) (CNS cell [1]): 6.13
TGI (Colon cell [2]): 5.06 and 5.08
TGI (NSCLC [3]): 4.65
TGI (Breast carcinoma cell [4]): 4.85
TGI [5]: 4.81
TGI (Ovarian carcinoma cell [6]): 4.82
TGI (Melanoma cell [7]): 4.6
TGI (Prostate cell [8]): 5.62
pGI50 (negative log molar GI50) (Prostate cell [9]): 6.98
pGI50 (negative log of GI50 in M) (Ovarian carcinoma cell [10]): 5.91
pGI50 (-log molar GI50) (Melanoma cell [11]): 6.21
pGI50 (negative log of molar GI50) (Colon cell [12]): 6.72
GI50 (NSCLC [13]): 6.17
GI50 (Renal cell [14]): 6.54
pGI50 (-log GI50, M) (Breast carcinoma cell [15]): 6.51
GI50 [16]: -6.42
LC50 (CNS cell [17]): 4.16
LC50 (Colon cell [18]): 4.34
LC50 (NSCLC [19]): 4.16
Activity (HT-29 [20]): 61.6%
Activity (HT-29 [21]): 86.2%
Activity (HT-29 [22]): 72%
LC50 (Renal cell [23]): 4.06
LC50 (Breast carcinoma cell [24]): 4.02
LC50 [25]: 4.15
LC50 (Ovarian carcinoma cell [26]): 4.3
LC50 (Melanoma cell [27]): 4.06
Activity (HT-29 [28]): 9.7%
Activity (HT-29 [29]): 11.1%
LC50 (Prostate cell [30]): 4.36

CC[C@]1(O)C[C@H]2CN(CCc3c([nH]c4ccccc34)[C@@](C(=O)OC)(c3cc4c(cc3OC)N(C=O)[C@H]3[C@@](O)(C(=O)OC)[C@H](OC(C)=O)[C@]5(CC)C=CCN6CC[C@]43[C@@H]65)C2)C1.O=S(=O)(O)O [VINCRISTINE SULFATE]
pGI50 (CNS cell [31]): 6.9
pGI50 (Colon cell [32]): 7
pTGI (CNS cell [33]): 5.2
pTGI (Colon cell [34]): 5.4
pTGI (NSCLC [35]): 4.8
pTGI (Renal cell [36]): 4.7
pTGI [37]: 5
pTGI (Breast carcinoma cell [38]): 5.1
pTGI (Leukemia cell [39]): 4.8
pTGI (Melanoma cell [40]): 5.1
pTGI (Ovarian carcinoma cell [41]): 4.7
pTGI (Prostate cell [42]): 5.2
pGI50 (Leukemia cell [43]): 7
pGI50 (Melanoma cell [44]): 6.8
pGI50 (Prostate cell [45]): 6.9
pGI50 (NSCLC [46]): 6.6
pGI50 (Renal cell [47]): 6.5
pGI50 (Breast carcinoma cell [48]): 6.5
pGI50 [49]: 6.7
pGI50 (Ovarian carcinoma cell [50]): 6.5
LC50 (CNS cell [51]): 3.7
LC50 (Colon cell [52]): 4.1
LC50 (NSCLC [53]): 3.6
LC50 (Breast carcinoma cell [54]): 3.5
LC50 [55]: 3.6
LC50 (Ovarian carcinoma cell [56]): 3.5
LC50 (Leukemia cell [57]): 3.2
LC50 (Melanoma cell [58]): 3.6
LC50 (Prostate cell [59]): 3.5
LC50 (Renal cell [60]): 3.6
